Molecular target: T1, GPR40 of human origin (Homo sapiens, UniProt O14842)
T1 construct: expressed in transfected cells
Assay: Agonist action on GPR40 of human origin (Ca2+ fluorescence in a CHO cell strain stably expressing GPR40)
Assay type: cell-based
Details: Ca2+ concentration fluctuation, fluorescence intensity
Experimental: A CHO cell strain stably expressing GPR40 of human origin was used to determine the agonist action of a subject compound. This cell strain was seeded in a clear bottom 96 well plate at 4×10^4 cells/100 μL/well. The cell strain was cultured in a CO2 incubator overnight using a Ham's F-12 medium containing a 10% fetal bovine serum, 100 U/mL penicillin, 0.1 mg/mL streptomycin, and 400 μg/mL Geneticin. Calcium 4 Assay Kit (Molecular Devices) was used as a fluorescent calcium indicator. One mL of 77 mg/mL probenecid (Invitrogen) was added to 100 mL of a calcium indicator solution to prepare a solution (loading solution) mixed with a 20 mM HEPES-containing Hanks' balanced salt solution (HBSS) in equal proportions. 200 μL of the loading solution was added to the cells from which the culture solution was removed, and the cells were cultured in a CO2 incubator for 1 hour. The subject compound was diluted with a 20 mM HEPES-containing HBSS and was added to the cells by 50 μL, and the fluctuation of the Ca^2+ concentration was measured by an intracellular ion analyzer. The EC50 value of the subject compound was calculated using the dose-response curve of fluorescence intensity variation.

T1 sequence (O14842 whole entry): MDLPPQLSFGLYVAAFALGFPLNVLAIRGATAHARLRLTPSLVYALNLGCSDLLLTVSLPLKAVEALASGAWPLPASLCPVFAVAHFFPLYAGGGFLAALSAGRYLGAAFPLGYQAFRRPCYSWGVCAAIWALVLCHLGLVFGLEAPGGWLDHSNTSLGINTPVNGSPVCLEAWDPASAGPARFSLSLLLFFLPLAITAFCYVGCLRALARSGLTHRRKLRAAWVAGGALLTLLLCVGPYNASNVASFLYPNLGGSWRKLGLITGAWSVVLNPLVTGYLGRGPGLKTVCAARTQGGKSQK

| Structure (SMILES) | EC50 |
| --- | --- |
| Cc1cc(OCCC(C)(C)O)nc(C)c1-c1cccc(COc2ccc(-c3cc(O)no3)cc2)c1C [Example 40, 5-(4-((3-(2,4-dimethyl-6-(3-hydroxy-3-methylbutoxy)pyridin-3-yl)-2-methylphenyl)methoxy)phenyl)isoxazol-3-ol] | < 0.3 µM |
| Cc1cc(OCCC(C)(C)O)nc(C)c1-c1cccc(COc2ccc(-c3cc(O)no3)cc2)c1 [Example 41, 5-(4-((3-(2,4-dimethyl-6-(3-hydroxy-3-methylbutoxy)pyridin-3-yl)phenyl)methoxy)phenyl)isoxazol-3-ol] | < 0.3 µM |
| Cc1cc(-c2cccc(COc3ccc(-c4cc(O)no4)cc3)c2C)c(C)nc1OCCC(C)(C)O [Example 47, 5-[4-[[3-[6-(3-hydroxy-3-methylbutoxy)-2,5-dimethylpyridin-3-yl]-2-methylphenyl]methoxy]phenyl]-1,2-oxazol-3-ol] | < 0.3 µM |
| Cc1nc(OCCC(C)(C)O)ccc1-c1cccc(COc2ccc(-c3cc(O)no3)cc2)c1C [Example 39, 5-(4-((3-(6-(3-hydroxy-3-methylbutoxy)-2-methylpyridin-3-yl)-2-methylphenyl)methoxy)phenyl)isoxazol-3-ol] | < 0.3 µM |
| Cc1cc(OCCC(C)(C)O)cc(C)c1-c1cccc(COc2ccc(-c3cc(O)no3)cc2)c1C [Example 45, 5-[4-[[3-[4-(3-hydroxy-3-methylbutoxy)-2,6-dimethylphenyl]-2-methylphenyl]methoxy]phenyl]-1,2-oxazol-3-ol] | < 0.3 µM |
| Cc1cc(OCCC(C)(C)O)cc(C)c1-c1cccc2c1CCC2Oc1ccc(-c2cc(O)no2)cc1 (stereo not drawn) [Example 37, 5-[4-[[4-[4-(3-hydroxy-3-methylbutoxy)-2,6-dimethylphenyl]-2,3-dihydro-1H-inden-1-yl]oxy]phenyl]-1,2-oxazol-3-ol] | < 0.3 µM |
| Oc1cc(-c2ccc(OC3CCc4c(Cl)cccc43)cc2)on1 (stereo not drawn) [Example 11, 5-(4-(4-chloro-2,3-dihydro-1H-inden-1-yloxy)phenyl)isoxazol-3-ol] | < 0.3 µM |
| Cc1cc(OCCC(C)(C)O)ncc1-c1cccc(COc2ccc(-c3cc(O)no3)cc2)c1C [Example 38, 5-(4-((3-(6-(3-hydroxy-3-methylbutoxy)-4-methylpyridin-3-yl)-2-methylphenyl)methoxy)phenyl)isoxazol-3-ol] | < 0.3 µM |
| Oc1cc(-c2ccc(OC3Cc4ccccc4C3)cc2)on1 [Example 2, 5-(4-(2,3-dihydro-1H-inden-2-yloxy)phenyl)isoxazol-3-ol] | < 0.3 µM |
| Cc1c(COc2ccc(-c3cc(O)no3)cc2)cccc1-c1cnc(OCCC(C)(C)O)c(C)c1C [Example 46, 5-[4-[[3-[6-(3-hydroxy-3-methylbutoxy)-4,5-dimethylpyridin-3-yl]-2-methylphenyl]methoxy]phenyl]-1,2-oxazol-3-ol] | < 0.3 µM |
| Cc1cc(OCC[C@@H](C)O)cc(C)c1-c1cccc2c1CCC2Oc1ccc(-c2cc(O)no2)cc1 (stereo partly drawn) [Example 36, 5-[4-[[4-[4-[(3R)-3-hydroxybutoxy]-2,6-dimethylphenyl]-2,3-dihydro-1H-inden-1-yl]oxy]phenyl]-1,2-oxazol-3-ol] | < 0.3 µM |
| Cc1cc(OCCC(C)(C)O)nc(C)c1-c1cccc2c1CCC2Oc1ccc(-c2cc(O)no2)cc1 (stereo not drawn) [Example 24, 5-(4-(4-(6-(3-hydroxy-3-methylbutoxy)-2,4-dimethylpyridin-3-yl)-2,3-dihydro-1H-inden-1-yloxy)phenyl)isoxazol-3-ol] | < 0.3 µM |

The next lines start with the values.

| EC50 | Structure (SMILES) |
| --- | --- |
| 0.3 to 3 µM | Oc1cc(-c2ccc(OC3CCc4cc(Cl)ccc43)cc2)on1 (stereo not drawn) [Example 13, 5-(4-(5-chloro-2,3-dihydro-1H-inden-1-yloxy)phenyl)isoxazol-3-ol] |
| 0.3 to 3 µM | Oc1cc(-c2ccc(OC3CCc4c(OCc5ccccc5C(F)(F)F)cccc43)cc2)on1 (stereo not drawn) [Example 29, 5-(4-(2,3-dihydro-4-(2-(trifluoromethyl)benzyloxy)-1H-inden-1-yloxy)phenyl)isoxazol-3-ol] |
| 0.3 to 3 µM | Oc1cc(-c2ccc(OC3CCc4cc(Br)ccc43)cc2)on1 (stereo not drawn) [Example 14, 5-(4-(5-bromo-2,3-dihydro-1H-inden-1-yloxy)phenyl)isoxazol-3-ol] |
| < 0.3 µM | Cc1cc(OC[C@H](O)CO)cc(C)c1-c1cccc(COc2ccc(-c3cc(O)no3)cc2)c1C [Example 44, (2R)-3-[4-[3-[[4-(3-hydroxy-1,2-oxazol-5-yl)phenoxy]methyl]-2-methylphenyl]-3,5-dimethylphenoxy]propane-1,2-diol] |
| < 0.3 µM | Cc1cc(OCCCS(C)(=O)=O)cc(C)c1-c1cccc(COc2ccc(-c3cc(O)no3)cc2)c1 [Example 42, 5-[4-[[3-[2,6-dimethyl-4-(3-methylsulfonylpropoxy)phenyl]phenyl]methoxy]phenyl]-1,2-oxazol-3-ol] |
| < 0.3 µM | Cc1cc(OCCCN2CCCC2=O)cc(C)c1-c1cccc(COc2ccc(-c3cc(O)no3)cc2)c1 [Example 43, 1-[3-[4-[3-[[4-(3-hydroxy-1,2-oxazol-5-yl)phenoxy]methyl]phenyl]-3,5-dimethylphenoxy]propyl]pyrrolidin-2-one] |
| 0.3 to 3 µM | Oc1cc(-c2ccc(OC3CCc4c(-c5ccc6c(c5)OCCO6)cccc43)cc2)on1 (stereo not drawn) [Example 34, 5-(4-(2,3-dihydro-4-(1,4-benzodioxan-6-yl)-1H-inden-1-yloxy)phenyl)isoxazol-3-ol] |
| 0.3 to 3 µM | Oc1cc(-c2ccc(OC3CCc4c3ccc(Cl)c4Cl)cc2)on1 (stereo not drawn) [Example 19, 5-(4-(4,5-dichloro-2,3-dihydro-1H-inden-1-yloxy)phenyl)isoxazol-3-ol] |
| < 0.3 µM | COc1ncccc1-c1cccc2c1CCC2Oc1ccc(-c2cc(O)no2)cc1 (stereo not drawn) [Example 23, 5-(4-(2,3-dihydro-4-(2-methoxypyridin-3-yl)-1H-inden-1-yloxy)phenyl)isoxazol-3-ol] |
| < 0.3 µM | Oc1cc(-c2ccc(OC3CCc4c(Oc5ccccc5)cccc43)cc2)on1 (stereo not drawn) [Example 26, 5-(4-(2,3-dihydro-4-phenoxy-1H-inden-1-yloxy)phenyl)isoxazol-3-ol] |
| 0.3 to 3 µM | N#Cc1cccc2c1CCC2Oc1ccc(-c2cc(O)no2)cc1 (stereo not drawn) [Example 12, 5-(4-(4-cyano-2,3-dihydro-1H-inden-1-yloxy)phenyl)isoxazol-3-ol] |
| 0.3 to 3 µM | Oc1cc(-c2ccc(NC3CCc4cc(Cl)ccc43)cc2)on1 (stereo not drawn) [Example 31, 5-(4-(5-chloro-2,3-dihydro-1H-inden-1-ylamino)phenyl)isoxazol-3-ol] |
| < 0.3 µM | Oc1cc(-c2ccc(OC3CCc4c(Cc5ccccc5)cccc43)cc2)on1 (stereo not drawn) [Example 30, 5-(4-(4-benzyl-2,3-dihydro-1H-inden-1-yloxy)phenyl)isoxazol-3-ol] |
| 0.3 to 3 µM | Oc1cc(-c2ccc(OC3CCc4c(-c5ccc6cc[nH]c6c5)cccc43)cc2)on1 (stereo not drawn) [Example 35, 5-(4-(2,3-dihydro-4-(1H-indol-6-yl)-1H-inden-1-yloxy)phenyl)isoxazol-3-ol] |
| < 0.3 µM | COc1cccc(-c2cccc3c2CCC3Oc2ccc(-c3cc(O)no3)cc2)c1 (stereo not drawn) [Example 21, 5-(4-(2,3-dihydro-4-(3-methoxyphenyl)-1H-inden-1-yloxy)phenyl)isoxazol-3-ol] |

— US8455500B2, “3-hydroxy-5-arylisoxazole derivative” (Mochida Pharmaceutical Co., Ltd., priority 2009, dated 2013)
